Data from ChEMBL document CHEMBL1799908, “Discovery and preliminary SARs of keto-indoles as novel indoleamine 2,3-dioxygenase (IDO) inhibitors” (Eur J Med Chem, 2011).
Activity calls are given as the source filed them. The rule behind the calls is not given here.

Legend:
[1] = molecular target: Tryptophan 2,3-dioxygenase (Mus musculus) (UniProt P48776); assay: Inhibition of mouse TDO expressed in mouse mastocytoma P815B cells using L-Trptophan as substrate at 20 uM after overnight by HPLC; assay type: cell-based
Sequence of Tryptophan 2,3-dioxygenase (Mus musculus) (P48776 whole entry): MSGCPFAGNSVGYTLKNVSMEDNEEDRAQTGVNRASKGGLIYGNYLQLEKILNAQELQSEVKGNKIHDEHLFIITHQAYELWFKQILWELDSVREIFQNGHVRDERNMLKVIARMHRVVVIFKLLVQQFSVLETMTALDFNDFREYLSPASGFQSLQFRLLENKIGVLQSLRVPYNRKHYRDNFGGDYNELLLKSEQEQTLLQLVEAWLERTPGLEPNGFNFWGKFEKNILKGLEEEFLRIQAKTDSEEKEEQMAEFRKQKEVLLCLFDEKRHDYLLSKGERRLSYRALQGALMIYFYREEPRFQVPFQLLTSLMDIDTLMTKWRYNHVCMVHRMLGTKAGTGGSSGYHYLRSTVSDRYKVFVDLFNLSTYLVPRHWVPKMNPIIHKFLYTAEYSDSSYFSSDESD

[2] = Cytotoxicity against mouse mastocytoma P815B cells assessed as cell viability at 20 uM after overnight incubation by MTT assay; assay type: cell-based; settings: for Activity: p815b, 20 µM; for viability at 20 µM: mastocytoma P815B cells, read-out: Activity
[3] = molecular target: T1, Indoleamine 2,3-dioxygenase 1 (Homo sapiens, UniProt P14902); assay: Inhibition of histidine-tagged human recombinant IDO expressed in bacterial strain BL21 AI using L-Trptophan as substrate measured at 490 nm wavelength at 100 uM after 6 min by colorimetric assay
Target sequence in this assay (P14902 whole entry, looked up): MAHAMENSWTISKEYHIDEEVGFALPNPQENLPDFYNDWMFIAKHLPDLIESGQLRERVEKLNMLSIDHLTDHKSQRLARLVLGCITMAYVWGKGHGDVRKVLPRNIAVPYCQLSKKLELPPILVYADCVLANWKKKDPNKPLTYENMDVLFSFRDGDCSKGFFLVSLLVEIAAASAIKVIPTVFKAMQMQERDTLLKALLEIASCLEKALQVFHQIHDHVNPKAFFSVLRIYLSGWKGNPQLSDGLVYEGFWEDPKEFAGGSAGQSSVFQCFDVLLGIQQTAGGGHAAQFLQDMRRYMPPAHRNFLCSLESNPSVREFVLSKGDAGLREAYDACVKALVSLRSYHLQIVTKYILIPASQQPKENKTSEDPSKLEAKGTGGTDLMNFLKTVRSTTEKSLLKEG

[4] = molecular target: T1, Indoleamine 2,3-dioxygenase 1; assay: Uncompetitive inhibition of histidine-tagged human recombinant IDO expressed in Escherichia coli using L-Trptophan as substrate assessed as hypochromic effect by UV analysis
Target sequence in this assay (P14902 whole entry, looked up): as above

[5] = molecular target: T1, Indoleamine 2,3-dioxygenase 1; assay: Uncompetitive inhibition of histidine-tagged human recombinant IDO expressed in bacterial strain BL21 AI using L-Trptophan as substrate measured at 490 nm wavelength after 6 min by colorimetric assay
Target sequence in this assay (P14902 whole entry): as the sequence (P14902 whole entry, looked up) above

[6] = molecular target: Indoleamine 2,3-dioxygenase 1 (Mus musculus) (UniProt P28776); assay: Inhibition of mouse IDO expressed in mouse mastocytoma P815B cells using L-Trptophan as substrate at 20 uM after overnight by HPLC; assay type: cell-based
Sequence of Indoleamine 2,3-dioxygenase 1 (Mus musculus) (P28776 whole entry, looked up): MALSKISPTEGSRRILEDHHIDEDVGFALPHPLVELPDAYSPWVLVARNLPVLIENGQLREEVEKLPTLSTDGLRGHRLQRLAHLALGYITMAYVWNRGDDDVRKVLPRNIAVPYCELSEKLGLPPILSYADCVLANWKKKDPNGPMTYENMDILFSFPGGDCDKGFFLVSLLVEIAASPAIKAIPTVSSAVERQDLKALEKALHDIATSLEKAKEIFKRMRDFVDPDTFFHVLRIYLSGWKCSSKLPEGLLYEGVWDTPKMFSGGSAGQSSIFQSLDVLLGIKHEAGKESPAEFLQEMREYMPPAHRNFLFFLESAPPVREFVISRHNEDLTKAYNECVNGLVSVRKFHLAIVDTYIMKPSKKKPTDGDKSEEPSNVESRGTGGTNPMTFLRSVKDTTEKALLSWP

[7] = molecular target: T1, Indoleamine 2,3-dioxygenase 1; assay: Competitive inhibition of histidine-tagged human recombinant IDO expressed in bacterial strain BL21 AI using L-Trptophan as substrate measured at 490 nm wavelength after 6 min by colorimetric assay
Target sequence in this assay (P14902 whole entry): as the sequence (P14902 whole entry, looked up) above

Row | SMILES | inhibition [1] | Activity [2] | viability at 20 µM [2] [%] | also measured
1 | Cn1cc(C[C@H](N)C(=O)O)c2ccccc21 [(L)-1-METHYLTRYPTOPHAN] | inactive | Non-toxic | – | –
2 | O=C(Cc1cccnc1)c1cc2cc([N+](=O)[O-])ccc2[nH]1 | inactive | – | 90 | –
3 | OC(Cc1cccnc1)c1cc2ccccc2[nH]1 (configuration not stated) | inactive | – | 90 | –
4 | O=C(Cc1cccnc1)c1cc2cc(Cl)ccc2[nH]1 | inactive | – | 90 | –
5 | Cc1ccc2[nH]c(C(=O)Cc3cccnc3)cc2c1 | inactive | Non-toxic | – | –
6 | N#Cc1ccc(-n2nnc3ccccc32)cc1 | – | – | – | inhibition [3]: > 50%
7 | O=C(Cc1cccnc1)c1cc2ccccc2[nH]1 | inactive | Non-toxic | – | Activity [4]: Active; inhibition [3]: > 50%; Ki [5]: 190 µM
8 | c1cncc(CCc2cc3ccccc3[nH]2)c1 | inactive | – | 90 | –
9 | O=C(Nc1cccnc1)c1cc2ccccc2[nH]1 | inactive | – | 75 | –
10 | Cn1c(C(=O)Cc2cccnc2)cc2ccccc21 | inactive | Non-toxic | – | –
11 | O=C(Cc1cccnc1)c1cc2cc(F)ccc2[nH]1 | inactive | Non-toxic | – | –
12 | O=C(Cc1cccnc1)c1cc2c(F)cccc2[nH]1 | inactive | – | 80 | –
13 | COc1ccc2[nH]c(C(=O)Cc3cccnc3)cc2c1 | inactive | Non-toxic | – | –
14 | Cn1c(C(=O)Cc2cccnc2)cc2cc(F)ccc21 | inactive | – | 95 | inhibition [6]: inactive; IC50 [7]: 92 µM
